Test results reported in patent US5087440A, “Heterocyclic derivatives of DTPA used for magnetic resonance imaging” (Salutar, Inc., priority 1990, dated 1992).

Legend:
[1] = iv administration; AU-81889/87; cited from earlier work
Swiss Webster mice = assay: Acute toxicity (LD50), iv administration to mice; assay type: in vivo; conditions: 500 mM Gd chelate alone or with 25 mM added Ca chelate
Method: Acute toxicity (LD50) values were determined for compositions comprising 500 mM Gd DTPA-APD alone or together with 25 mM of the calcium chelate of DTPA-APD and, for further comparison, for compositions comprising 500 mM Gd DTPA-dimeglumine alone or together with 25 mM of a calcium chelate of DTPA or a DTPA-bisamide (the bismethylamide. The acute toxicities were determined by iv administrations of the compositions to Swiss Webster mice.

CNC[C@H](O)[C@@H](O)[C@H](O)[C@H](O)CO.CNC[C@H](O)[C@@H](O)[C@H](O)[C@H](O)CO.O=C([O-])CN(CCN(CC(=O)[O-])CC(=O)O)CCN(CC(=O)[O-])CC(=O)O.[Gd+3] [Gd DTPA]
gadolinium retention (in words) [1]: gadolinium retention following iv administration | LD50 (iv mice) (Swiss Webster mice): 5.5 mmol/kg
